Measured values published in ChEMBL document CHEMBL1201862, “PubChem BioAssay data set” (2004).
Structures can show the parent of a compound that is named as a salt. Active and inactive are the calls of the source.

Columns and labels:
[1] = inhibitors of intracellular T. cruzi replication, confirmation, NIH3T3 host cells, beta-gal luminescence (AID 2044); type: functional, cell-based;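 further: intracellular parasites grown in NIH/3T3 mouse fibroblasts as host cells; luminescent beta-galactosidase reporter signal from transgenic T. cruzi replicating inside host cells; inhibitors lower the luminescence signal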
[2] = target: T1, Calpain-2 catalytic subunit (Sus scrofa, UniProt P43367); assay: pig calpain II inhibitor potency, dose response, biochemical, fluorogenic peptide substrate (AID 1420); type: functional
T1 sequence (P43367 whole entry): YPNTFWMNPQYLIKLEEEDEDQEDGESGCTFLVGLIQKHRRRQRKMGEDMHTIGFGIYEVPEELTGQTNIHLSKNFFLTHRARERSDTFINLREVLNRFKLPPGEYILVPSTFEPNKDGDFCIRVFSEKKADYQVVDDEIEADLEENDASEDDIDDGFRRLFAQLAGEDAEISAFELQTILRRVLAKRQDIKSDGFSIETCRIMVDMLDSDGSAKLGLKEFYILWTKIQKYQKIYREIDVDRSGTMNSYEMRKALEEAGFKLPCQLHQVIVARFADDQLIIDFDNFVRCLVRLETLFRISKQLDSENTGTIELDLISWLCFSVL

[3] = cytotoxicity toward NIH3T3 fibroblasts, dose response, counter-screen, cell-based, ATP luminescence, mouse fibroblasts (AID 2010); type: functional;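 further: cells exposed to compound for about 90 hours before reading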
[4] = target: ATP-dependent translocase ABCB1 (Homo sapiens, UniProt P08183); assay: ABCB1 efflux pump inhibitor potency, dose response, Jurkat-DNR cells, JC-1, flow cytometry (AID 1689); type: functional
[5] = target: Broad substrate specificity ATP-binding cassette transporter ABCG2 (Homo sapiens, UniProt Q9UNQ0); assay: ABCG2 efflux pump inhibitors, dose response, Ig-MXP3 cells, flow cytometry (AID 1690); type: functional
[6] = HepG2 cell cytotoxicity, dose response, cytotoxicity control, ATP luminescence, cherry-pick, set 6 (AID 1053125); type: functional, cell-based
cells [7] = assay: cells
cells [8] = settings: HEK293
[9] = Inhibition of T. cruzi Tulahuen strain amastigotes in L-6 muscle cells Measured in Cell-Based and Microorganism Combination System Using Plate Reader - 2138-03_Inhibitor_Dose_CherryPick_Activity.; type: functional; settings: Rattus norvegicus, L6
[10] = cytotoxicity in L-6 rat myocytes, dose response, cytotoxicity control, cell-based, plate reader, cherry-pick (AID 651896); type: functional
[11] = Inhibition of Plasmodium falciparum NF54 Measured in Cell-Based System Using Plate Reader - 2138-11_Inhibitor_Dose_CherryPick_Activity.; type: functional
[12] = L. donovani amastigote growth inhibition, dose response, axenic amastigotes, plate reader, cherry pick (AID 651891); type: functional, cell-based; settings: Leishmania donovani
[13] = NIH/3T3 fibroblast cytotoxicity, dose response, cytotoxicity control for T. cruzi growth inhibitor project, cell-based, cherry-pick samples, set 2 (AID 651817); type: functional; settings: NIH3T3
[14] = intracellular Trypanosoma cruzi inhibitors in host cells – cell-based, plate reader, cherry-pick samples, set 3, dose response (AID 651818); type: functional;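 further: compounds incubated with infected cells for about four days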
[15] = T. b. rhodesiense proliferation inhibition, dose response, STIB900 strain, plate reader, cherry pick (AID 651893); type: functional, cell-based; settings: Trypanosoma brucei
[16] = T. cruzi growth inhibition in host cells, dose response, cell-based, plate reader, dry powder, set 2 (AID 652275); type: functional
[17] = growth inhibition of intracellular T. cruzi, dose response, cell-based, plate reader, dry powder samples (AID 651845); type: functional
[18] = T. cruzi intracellular amastigote growth inhibition, dose response, imaging, CA-I/72 strain, bovine embryo skeletal muscle, dry powder (AID 651885); type: functional, cell-based
[19] = target: NAD-dependent protein deacylase sirtuin-5, mitochondrial (Homo sapiens, UniProt Q9NXA8); assay: SIRT5 deacylase inhibitors, dose response, biochemical, fluorescence imaging, cherry-pick, set 6 (AID 720597)
Fibrinogen beta chain [20] = target: T2, Fibrinogen beta chain (Homo sapiens, UniProt P02675); assay: Fluorescence polarization-based biochemical high throughput dose response assay to identify inhibitors that disrupt the binding of a cyclic peptide (Tn6) to the fibrin proteolytic product D-Dimer and fragment E complex [DD(E )].
Fibrinogen beta chain [21] = target: T2, Fibrinogen beta chain; assay: Fluorescence polarization-based biochemical high throughput dose response assay to identify inhibitors that disrupt the binding of a cyclic peptide (Tn7) to the fibrin proteolytic product D-Dimer and fragment E complex [DD(E )].
[22] = Late stage assay provider results from the probe development effort to identify inhibitors of the Plasmodium falciparum M18 Aspartyl Aminopeptidase (M18AAP): radiolabel-based cell-based dose response assay to identify compounds that inhibit P. falciparum growth in RBCs, Set 2..; type: functional
[23] = A Cell-Based Confirmatory Screen for Compounds that Inhibit VEEV, TC-83 (5).; type: functional
[24] = inhibitors of non-replicating M. tuberculosis, dose response, luciferase, dry powder (AID 651619); type: functional; settings: Mycobacterium tuberculosis
[25] = inhibitors of non-replicating M. tuberculosis, dose response, luciferase, dry powder (AID 651620); type: functional; settings: Mycobacterium tuberculosis
[26] = growth inhibition of replicating M. tuberculosis, dose response, counter-screen, dry powder, IC90 (AID 651617); type: functional; settings: Mycobacterium tuberculosis
[27] = target: RNA-editing ligase 1, mitochondrial (Trypanosoma brucei brucei, UniProt P86926); assay: TbREL1 ligase inhibitors, dose response, biochemical, fluorescence, Trypanosoma brucei (AID 1117295); type: functional
[28] = target: T3, Low molecular weight phosphotyrosine protein phosphatase (Homo sapiens, UniProt P24666); assay: LMPTP phosphatase inhibitors, dose response, biochemical, OMFP substrate, fluorescence intensity, set 2 (AID 743307); type: functional
T3 sequence (P24666 whole entry): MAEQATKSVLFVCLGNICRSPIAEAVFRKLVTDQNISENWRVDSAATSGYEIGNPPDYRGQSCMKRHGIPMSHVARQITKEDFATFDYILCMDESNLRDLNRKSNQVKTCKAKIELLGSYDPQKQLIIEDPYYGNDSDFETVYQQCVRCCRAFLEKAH

[29] = target: T3, Low molecular weight phosphotyrosine protein phosphatase; assay: LMPTP phosphatase inhibitors, colorimetric pNPP readout, dose response, orthogonal assay, biochemical, absorbance, pNPP substrate, LMPTP-A isoform, set 2 (AID 743308); type: functional
[30] = HeLa 2N DNA content increase, dose response, cell-based, IC50 (AID 1117349); type: functional
[31] = Dose-response inhibition of insulin secretion in a rat insulinoma line at 5 mM glucose (AID 1117331); type: functional, cell-based; settings: INS-1E
cells [32] = type: functional, cell-based; settings: INS-1E
[33] = HeLa 4N DNA content increase, dose response, cell-based, IC50 (AID 1117351); type: functional

T2 sequence (P02675 whole entry, the tested form may be a part): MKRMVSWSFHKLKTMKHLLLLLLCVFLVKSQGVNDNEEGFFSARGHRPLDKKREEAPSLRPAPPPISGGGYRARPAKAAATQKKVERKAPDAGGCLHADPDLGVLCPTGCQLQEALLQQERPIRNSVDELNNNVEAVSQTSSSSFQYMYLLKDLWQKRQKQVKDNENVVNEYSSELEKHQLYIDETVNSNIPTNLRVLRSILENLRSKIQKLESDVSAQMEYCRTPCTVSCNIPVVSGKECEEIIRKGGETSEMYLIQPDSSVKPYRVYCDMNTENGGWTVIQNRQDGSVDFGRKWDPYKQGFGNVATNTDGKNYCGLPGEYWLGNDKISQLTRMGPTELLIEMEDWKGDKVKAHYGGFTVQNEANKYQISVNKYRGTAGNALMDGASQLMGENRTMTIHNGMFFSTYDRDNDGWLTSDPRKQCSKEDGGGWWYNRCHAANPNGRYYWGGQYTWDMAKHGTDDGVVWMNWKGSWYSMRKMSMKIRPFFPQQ
Chain of RNA-editing ligase 1, mitochondrial (P86926 whole entry): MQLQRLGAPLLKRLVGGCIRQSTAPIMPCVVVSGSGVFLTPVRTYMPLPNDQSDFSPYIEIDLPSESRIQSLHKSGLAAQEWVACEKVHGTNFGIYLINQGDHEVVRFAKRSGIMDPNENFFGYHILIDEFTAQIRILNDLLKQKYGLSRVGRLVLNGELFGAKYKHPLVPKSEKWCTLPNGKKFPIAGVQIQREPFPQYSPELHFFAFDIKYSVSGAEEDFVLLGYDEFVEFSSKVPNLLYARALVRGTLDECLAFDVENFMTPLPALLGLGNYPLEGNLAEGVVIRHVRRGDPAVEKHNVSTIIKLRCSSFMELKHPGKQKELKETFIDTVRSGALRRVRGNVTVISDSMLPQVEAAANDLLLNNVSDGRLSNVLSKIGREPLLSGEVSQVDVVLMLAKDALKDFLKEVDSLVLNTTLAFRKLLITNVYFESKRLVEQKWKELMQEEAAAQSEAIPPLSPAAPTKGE
Chain of NAD-dependent protein deacylase sirtuin-5, mitochondrial (Q9NXA8 whole entry, the tested form may be a part): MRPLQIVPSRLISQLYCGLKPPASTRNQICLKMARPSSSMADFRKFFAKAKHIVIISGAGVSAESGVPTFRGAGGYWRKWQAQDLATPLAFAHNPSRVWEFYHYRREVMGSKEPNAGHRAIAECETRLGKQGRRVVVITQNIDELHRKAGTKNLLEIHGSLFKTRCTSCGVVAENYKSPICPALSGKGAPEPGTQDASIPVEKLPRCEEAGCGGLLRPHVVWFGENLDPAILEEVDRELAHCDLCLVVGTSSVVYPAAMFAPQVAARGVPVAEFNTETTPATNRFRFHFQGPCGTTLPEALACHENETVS
Chain of ATP-dependent translocase ABCB1 (P08183 whole entry): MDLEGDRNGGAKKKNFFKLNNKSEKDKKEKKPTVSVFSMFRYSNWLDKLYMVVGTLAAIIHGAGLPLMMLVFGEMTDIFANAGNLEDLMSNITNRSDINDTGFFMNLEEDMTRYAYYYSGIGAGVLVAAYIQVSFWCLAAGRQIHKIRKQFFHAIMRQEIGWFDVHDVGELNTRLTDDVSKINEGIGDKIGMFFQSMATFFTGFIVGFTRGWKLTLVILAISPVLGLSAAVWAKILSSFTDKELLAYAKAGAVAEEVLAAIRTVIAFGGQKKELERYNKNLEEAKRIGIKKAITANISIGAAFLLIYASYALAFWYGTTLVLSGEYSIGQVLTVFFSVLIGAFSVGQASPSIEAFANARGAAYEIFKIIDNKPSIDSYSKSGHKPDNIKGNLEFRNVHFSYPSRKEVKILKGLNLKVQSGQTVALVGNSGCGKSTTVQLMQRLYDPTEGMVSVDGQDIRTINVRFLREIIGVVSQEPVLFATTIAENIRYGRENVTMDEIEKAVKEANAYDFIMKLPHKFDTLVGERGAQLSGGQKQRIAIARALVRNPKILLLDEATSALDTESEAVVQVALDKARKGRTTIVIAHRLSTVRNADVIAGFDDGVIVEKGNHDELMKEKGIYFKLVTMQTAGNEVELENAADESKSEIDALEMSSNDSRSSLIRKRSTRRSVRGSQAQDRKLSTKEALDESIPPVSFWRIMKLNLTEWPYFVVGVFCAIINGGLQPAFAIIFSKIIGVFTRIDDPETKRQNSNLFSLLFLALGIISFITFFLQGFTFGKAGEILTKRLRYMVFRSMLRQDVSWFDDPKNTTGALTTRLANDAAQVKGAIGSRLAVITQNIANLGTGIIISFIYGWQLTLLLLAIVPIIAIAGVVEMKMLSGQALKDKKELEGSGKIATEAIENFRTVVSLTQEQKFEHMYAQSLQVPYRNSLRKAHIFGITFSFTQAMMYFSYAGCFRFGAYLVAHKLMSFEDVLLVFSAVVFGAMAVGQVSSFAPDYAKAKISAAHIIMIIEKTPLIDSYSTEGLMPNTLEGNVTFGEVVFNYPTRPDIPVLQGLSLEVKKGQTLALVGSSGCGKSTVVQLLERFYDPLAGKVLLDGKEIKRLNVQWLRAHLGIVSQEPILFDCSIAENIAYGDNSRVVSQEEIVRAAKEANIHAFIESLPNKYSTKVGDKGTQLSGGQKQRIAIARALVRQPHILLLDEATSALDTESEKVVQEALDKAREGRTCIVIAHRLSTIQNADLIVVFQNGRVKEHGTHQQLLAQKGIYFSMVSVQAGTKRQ
Chain of Broad substrate specificity ATP-binding cassette transporter ABCG2 (Q9UNQ0 whole entry): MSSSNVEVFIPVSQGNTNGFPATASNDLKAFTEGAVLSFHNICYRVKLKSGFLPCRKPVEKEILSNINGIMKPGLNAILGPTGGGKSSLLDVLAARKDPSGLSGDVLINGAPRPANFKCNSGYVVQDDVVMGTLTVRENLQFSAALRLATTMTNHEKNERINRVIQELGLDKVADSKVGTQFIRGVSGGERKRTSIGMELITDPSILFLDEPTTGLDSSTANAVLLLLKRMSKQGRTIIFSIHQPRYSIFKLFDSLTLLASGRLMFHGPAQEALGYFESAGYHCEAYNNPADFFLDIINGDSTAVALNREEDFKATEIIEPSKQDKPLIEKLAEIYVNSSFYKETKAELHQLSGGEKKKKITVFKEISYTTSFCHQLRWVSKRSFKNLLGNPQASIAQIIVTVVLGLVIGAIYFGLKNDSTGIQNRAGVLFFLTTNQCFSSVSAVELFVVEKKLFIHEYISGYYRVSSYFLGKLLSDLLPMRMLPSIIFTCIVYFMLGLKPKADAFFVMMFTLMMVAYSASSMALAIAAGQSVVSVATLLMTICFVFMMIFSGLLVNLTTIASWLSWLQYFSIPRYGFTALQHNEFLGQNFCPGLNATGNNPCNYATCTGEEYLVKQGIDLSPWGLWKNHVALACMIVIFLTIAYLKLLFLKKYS

## CCOC(=O)c1c(NC(=O)CSc2ncccn2)sc2c1CCN(Cc1ccccc1)C2
[1]
  EC50: 3.07 µM (active)
[2]
  IC50: 5.71 µM (not active)
[3]
  EC50: > 60 µM (not active)
[4]
  EC50: 9.93 µM (active)
[5]
  EC50: 1.88 µM (active)
[6]
  AC50: > 52 µM (inactive)
Cells [7]
  AC50: > 70 µM (inactive)
Cells [8]
  AC50: > 52 µM (inactive)

## C[C@@H]1CN([C@H](C)CO)C(=O)c2cccc(NC(=O)c3ccncc3)c2O[C@H]1CN(C)Cc1ccc2c(c1)OCO2
[9]
  IC50: 5.79 µM (inactive)
[10]
  IC50: > 100 µM (inactive)
[11]
  IC50: 5.79 µM (inactive)
[12]
  IC50: > 100 µM (inactive)
[13]
  AC50: 39 µM (inactive)
[14]
  AC50: 0.08 µM (active)
[15]
  IC50: 6.86 µM (inactive)
[16]
  AC50: 0.0187 µM (active)
[17]
  AC50: 0.311 µM (active)
[18]
  IC50: 0.049 µM (active)

## COc1ccc(S(=O)(=O)Nc2ccc3c(c2)C(=O)N([C@@H](C)CO)C[C@@H](C)[C@H](CN(C)S(=O)(=O)c2ccccc2)OCCCC[C@H](C)O3)cc1
[19]
  AC50: > 30 µM (inactive)

## CCOC(=O)C1=Nc2cccc3c(O)ccc1c23
Fibrinogen beta chain [20]
  IC50: 22.3 µM (inactive)
Fibrinogen beta chain [21]
  IC50: > 9.25 µM (active)

## COc1cc(Br)c(CCNc2c3ccccc3nc3ccccc23)cc1OC
[22]
  IC50: 0.3 µM (active)

## CCN1CCN(Cc2nc3ccc(I)cc3c(=O)n2-c2ccccc2)CC1
[23]
  IC50: 17.1 µM (active)

## Cc1ccc(-c2nnc(SCc3ccccn3)o2)cc1
[24]
  IC90: 4 µM (active)
[25]
  IC90: 4 µM (active)
[26]
  IC90: 62 µM (active)

## COC(=O)C1=C(C)N(Cc2ccccc2C(F)(F)F)C(NCc2ccc(OC)cc2)=NC1c1ccc(Cl)cc1 (stereo not drawn)
[27]
  IC50: > 96.6 µM (inactive)

## c1ccc(-c2nc(NC3CC3)c3ccccc3n2)cc1
[28]
  IC50: 48.1 µM (inactive)
[29]
  IC50: > 80 µM (inactive)

## CCN(CCCCOC(=O)c1ccc(OC)c(OC)c1)C(C)Cc1ccc(OC)cc1 (stereo not drawn) [MEBEVERINE HYDROCHLORIDE]
[30]
  IC50: > 10 µM (inactive)
[31]
  IC50: 1.95 µM (active)
Cells [32]
  IC50: > 33.3 µM (inactive)
[33]
  IC50: > 10 µM (inactive)
